This note sets out measurements from patent US20040146971A1, “Novel p53 inducible protein” (priority 2001, published 2004).

In assay [1] the test system is Scotin. Kind of assay: Western blot of Scotin protein induction in mouse embryonic fibroblasts. It is filed as cell-based. The following applies: 60 ng/ml. How it is done: (§1) FIG. 7 is a western blot which illustrates that p53 is necessary and sufficient to induce Scotin protein expression. a) Only primary mouse embryonic fibroblasts (MEF) expressing WTp53 induce Scotin after UV irradiation or Actinomycin D treatment. MEF from p53−/− and p53+/+ littermate mice were exposed to UV-C light (20 J/m2) or Actinomycin D (60 ng/ml). Proteins were extracted at time indicated after treatment and analysed by Western blot by using affinity purified rabbit polyclonal anti-mouse-Scotin antibody. As a positive control, p53 and Waf induction were determined by using CM5 rabbit polyclonal anti-mouse p53 antibody and F5 mouse monoclonal anti-Waf antibody. […] Scotin expression was analysed by Western blot by using affinity purified rabbit polyclonal anti-human Scotin antibody. […]
(§2) Cells were washed and scraped in PBS buffer and centrifuged at 2000 rpm for 2 min. […] Protein concentration of the supernatant was determined by the Bradford assay. […]
(§3) In order to further characterise Scotin protein, it was essential to identify cell lines that could induce Scotin upon DNA damage. […] Proteins were extracted after treatment and levels analysed by Western blot Waf and p53 protein levels were used as an indication of p53 activation.

In assay [2] the test system is Scotin. Kind of assay: Western blot of Scotin protein induction in human fibroblasts and tumour cell lines. The class given is cell-based. How it is done:
as §1, §2, §3
(In general: A western blot detects proteins with antibodies after separation by electrophoresis.)

The test system of assay [3] is NIH3T3-derived Scotin antisense and control antisense fibroblasts. Kind of assay: Cell survival by Giemsa staining, Scotin antisense versus control antisense fibroblasts. It is filed as cell-based, mouse. The following applies: different doses. On the procedure: Cell survival was determinated as described in the Experimental Procedures by trypan blue 24 h after irradiation. Histogram represents the compilation of 4 independent experiments. Standard Deviation is reported as error bars. b) Clonoge assay; Scotin antisense and control antisense expressing fibroblasts were treated at concentrations indicated with the DNA-damaging agent Doxorubicin (Dx) or with the activators of ER stress Thapsigargin (Tg) or Tunicamycin (Tu) or with an activator of mitochondrial stress, FCCP. After treatment, cells were fixed in methanol and stained by Giemsa.
Cells were treated with different doses of doxorubicin for 24 h and were allowed to recover for 24 h after treatment. Cell survival was estimated by giemsa staining.
(§4) The list of conditions known to trigger the ER stress response includes treatment of cells with thapsigargin, which interferes with calcium flux across the ER membrane, or tunicamycin, an inhibitor of N-linked glycosylation, or reducing agents, or deprivation of nutrients such as glucose, amino acids, or hypoxia. […] NIH3T3, p53−/−, Scotin antisense and control antisense expressing fibroblasts were treated with different doses of thapsigargin or tunicamycin or FCCP, a protonophore inducing mitochondrial stress. Cell survival was estimated by giemsa staining (FIG. 12.3).

The subject of a further assay is p53−/− fibroblasts. Kind of assay: Apoptosis of p53-/- fibroblasts after ER stress activators. The class given is cell-based, mouse. How it is done:
as §4

A further assay relates to NIH3T3 fibroblasts. In words: TUNEL staining of drug-treated NIH3T3 fibroblasts. It is filed as cell-based, mouse. As to conditions: NIH3T3, 24 h; tunicamycin 1 μg/ml, thapsigargin 150 nM. How it is done: NIH3T3 fibroblasts were treated for 24 h with 1 μg/ml of tunicamycin, fixed by paraformaldehyde and stained by TUNEL. Cells in apoptosis are stained by TUNEL (eft hand images).
For TUNEL assay, cells (3×10^5) seeded on 2-well glass chamber slide, were transfected as described. Cells were fixed for 30 min at RT in 4% paraformaldehyde in PBS, washed in PBS and permeabilised 2 min at 4° C. in 0.1% Triton X-100, 0.1% sodium citrate. The TUNEL staining was performed accordingly to the manufacturer's protocol (In Situ Cell Death Detection kit, Roche Molecular Biochemicals). The apoptotic cells presenting fragmented DNA were then labelled in green after incorporation of fluorescein.

Starred links: 1 amine or outer side, 2 acyl side, 3 side chain; linkers in the order of their positions; H or OH if unused. Positions of bridges follow the written chain, without caps; N, C: chain ends. Non-standard residues stand in square brackets, D forms with d. Residues, ends and D or L forms follow the SMILES beside them. Chains are numbered I, II in the order given. Actinocin(9to1) = Cc1c2oc3c(C)ccc(C(=O)[*:1])c3nc-2c(C(=O)[*:2])c(N)c1=O; NMeV = CN[C@H](C(=O)O)C(C)C; Sar = CNCC(=O)O

In the case of `Cc1c2oc3c(C)ccc(C(=O)N[C@@H]4C(=O)N[C@H](C(C)C)C(=O)N5CCC[C@H]5C(=O)N(C)CC(=O)N(C)[C@@H](C(C)C)C(=O)O[C@@H]4C)c3nc-2c(C(=O)N[C@@H]2C(=O)N[C@H](C(C)C)C(=O)N3CCC[C@H]3C(=O)N(C)CC(=O)N(C)[C@@H](C(C)C)C(=O)O[C@@H]2C)c(N)c1=O` [Actinomycin D] (I: T[dV]P[Sar][NMeV] / II: T[dV]P[Sar][NMeV]; ester I:1-I:C, II:1-II:C; linker I:N-II:N via Actinocin(9to1)), the Scotin protein level entry in the assay on Scotin [1] (p53+/+ MEF) is given as “clearly accumulated”; with Scotin [1] (p53−/− MEF), “not”; in the assay on Scotin [2] (human primary fibroblast and tumour cells expressing wt p53, 60 ng/ml) it was “clearly accumulated”; in the assay with Scotin [2] (human tumour cell lines devoid of p53 expression, 60 ng/ml) it was “not”.

In the case of `N#CC(C#N)=NNc1ccc(OC(F)(F)F)cc1` [FCCP], the “resistance of Scotin antisense cells compared with control antisense cells to cell death induced by the drug” value in assay [3] was “not”.

Take `COc1cccc2c1C(=O)c1c(O)c3c(c(O)c1C2=O)C[C@@](O)(C(=O)CO)C[C@@H]3O[C@H]1C[C@H](N)[C@H](O)[C@H](C)O1` [doxorubicin]: in assay [3], the “resistance of Scotin antisense cells compared with control antisense cells to cell death induced by the drug” value is given as “more resistant”.

As for `C/C=C(/C)C(=O)O[C@H]1C(C)=C2[C@H]([C@@H]1OC(=O)CCCCCCC)[C@@](C)(OC(C)=O)C[C@H](OC(=O)CCC)[C@@]1(O)[C@H]2OC(=O)[C@@]1(C)O` [thapsigargin], in the assay with p53−/− fibroblasts, the “apoptosis induced by the drug in p53−/− fibroblasts” value is reported as “resistant”. The “resistance of Scotin antisense cells compared with control antisense cells to cell death induced by the drug” value in assay [3] is reported as “more resistant”.

For the compound tunicamycin, in the assay on p53−/− fibroblasts, the “apoptosis induced by the drug in p53−/− fibroblasts” value is “resistant”. Besides, the “resistance of Scotin antisense cells compared with control antisense cells to cell death induced by the drug” value in assay [3] is “more resistant”. Besides, in the assay with NIH3T3 fibroblasts, the “cell death by TUNEL” value is “die by apoptosis”.
